Assay [1] has as its target T1, Recombinant human NK3 (hNK3) receptor (Homo sapiens, UniProt P29371).
T1 construct: expressed in transfected cells
T1 sequence (P29371 1-465): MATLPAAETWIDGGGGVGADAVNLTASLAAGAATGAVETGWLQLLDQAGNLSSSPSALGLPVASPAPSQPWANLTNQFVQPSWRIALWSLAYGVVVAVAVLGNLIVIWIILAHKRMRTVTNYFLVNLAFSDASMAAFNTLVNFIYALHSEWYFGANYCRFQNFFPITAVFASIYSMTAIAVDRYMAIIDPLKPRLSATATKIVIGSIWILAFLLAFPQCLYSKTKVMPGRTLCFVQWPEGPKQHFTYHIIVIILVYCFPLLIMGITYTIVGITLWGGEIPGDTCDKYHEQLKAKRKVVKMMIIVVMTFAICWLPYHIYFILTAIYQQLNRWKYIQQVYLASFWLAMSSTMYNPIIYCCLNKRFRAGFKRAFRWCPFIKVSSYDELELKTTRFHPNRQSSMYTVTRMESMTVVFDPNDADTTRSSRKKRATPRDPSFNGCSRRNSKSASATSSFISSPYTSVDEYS
In words: NK3 receptor affinity, [3H]SR142801 binding. Conditions: hNK3 receptor membranes, [3H]SR142801 0.3 nM; read-out: pki NK3 (converted). Here is the method:
Recombinant human NK3 (hNK3) receptor affinity was determined in a 96 well plate assay, using [^3H]SR142801 (final concentration 0.3 nM) to radiolabel the hNK3 receptor in the presence of 10 concentrations of competing compound or buffer. Non specific binding was determined using 10 μM SB222200. Assay buffer consisted of Tris-HCl (50 mM, pH 7.4), BSA (0.1%), MnCl2 (4 mM) and phosphoramidon (1 μM). Membrane preparations of hNK3 receptors (approximately 2.5 μg/well in a 96 well plate) were used to initiate the incubation for 90 min at room temperature. This assay was terminated by rapid filtration under vacuum through GF/C filters, presoaked for 90 min with PEI (0.3%), with 3×0.5 ml washes of ice-cold Tris buffer (50 mM, pH 7.4) containing 0.1% BSA. The radioactivity retained on the filters was measured by scintillation counting. All assays were performed in duplicate in at least two separate experiments.

The target of another assay is human NK1 receptor (Homo sapiens, UniProt P25103). In words: NK1 receptor affinity, [3H]substance P binding. The note with it: human NK1 receptors in CHO cells, [3H]substance P 0.6 nM; read-out: pki NK1 (converted). Here is the method:
The affinity of test compounds for the NK1 receptor was evaluated at human NK1 receptors in CHO cells infected with the human NK1 receptor (using the Semliki virus expression system) and radiolabelled with [^3H]substance P (final concentration 0.6 nM). Binding assays were performed in HEPES buffer (50 mM, pH 7.4) containing BSA (0.04%) leupeptin (16.8 μg/ml), MnCl2 (3mM) and phosphoramidon (2 μM). Binding assays consisted of 250 μl of membrane suspension (approximately 1.5 μg/well in a 96 well plate), […] of buffer of displacing agent and 125 μl of [^3H]substance P. Displacement curves were determined with at least seven concentrations of the compound. The assay tubes were incubated for 60 min at room temperature after which time the tube contents were rapidly filtered under vacuum through GF/C filters presoaked for 60 min with PEI (0.3%) with 3×1 ml washes of HEPES buffer (50 mM, pH 7.4). The radioactivity retained on the filters was measured by scintillation counting. All assays were performed in duplicate in at least 2 separate experiments.

The conditions of assay [2]: phase II trial, cited from earlier work.

Chain of human NK1 receptor (P25103 whole entry): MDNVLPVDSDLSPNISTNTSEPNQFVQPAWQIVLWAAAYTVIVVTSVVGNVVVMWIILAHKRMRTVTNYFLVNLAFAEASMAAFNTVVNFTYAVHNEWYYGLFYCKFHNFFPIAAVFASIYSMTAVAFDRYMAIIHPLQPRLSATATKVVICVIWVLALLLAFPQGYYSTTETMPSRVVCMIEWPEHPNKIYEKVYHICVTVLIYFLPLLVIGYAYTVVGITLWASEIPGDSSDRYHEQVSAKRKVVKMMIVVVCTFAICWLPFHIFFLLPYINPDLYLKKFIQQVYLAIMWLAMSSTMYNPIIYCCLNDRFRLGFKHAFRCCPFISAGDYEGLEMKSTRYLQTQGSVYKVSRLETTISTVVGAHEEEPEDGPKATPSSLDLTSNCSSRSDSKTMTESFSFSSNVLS

As to `Cc1cc(F)ccc1-c1cc(-c2cccnc2)ncc1N(C)C(=O)C(C)(C)c1cc(C(F)(F)F)cc(C(F)(F)F)c1` [Example 5, 2-(3,5-Bis-trifluoromethyl-phenyl)-N-[4-(4-fluoro-2-methyl-phenyl)-[2,3′]bipyridinyl-5-yl]-N-methyl-isobutyramide], the Ki in assay [1] is 16.2 nM; on human NK1 receptor, 1.29 nM.

Consider `CN(C(=O)C(C)(C)c1cc(C(F)(F)F)cc(C(F)(F)F)c1)c1cnc(OCCO)cc1-c1ccccc1Cl` [Example 1, 2-(3,5-Bis-trifluoromethyl-phenyl)-N-[4-(2-chloro-phenyl)-6-(2-hydroxy-ethoxy)-pyridin-3-yl]-N-methyl-isobutyramide], for which the Ki is 19.5 nM in assay [1] and 0.562 nM at human NK1 receptor.

For the compound `Cc1cc(F)ccc1-c1cc(C2=CCS(=O)(=O)CC2)ncc1N(C)C(=O)C(C)(C)c1cc(C(F)(F)F)cc(C(F)(F)F)c1` [Example 15, 2-(3,5-Bis-trifluoromethyl-phenyl)-N-[6-(1,1-dioxo-1,2,3,6-tetrahydro-1λ^6-thiopyran-4-yl)-4-(4-fluoro-2-methyl-phenyl)-pyridin-3-yl]-N-methyl-isobutyramide], the Ki in assay [1] was 6.76 nM; at human NK1 receptor it was 0.589 nM.

As for `Cc1cc(F)ccc1-c1cc(-c2ccnc(CO)c2)ncc1N(C)C(=O)C(C)(C)c1cc(C(F)(F)F)cc(C(F)(F)F)c1` [Example 9, 2-(3,5-Bis-trifluoromethyl-phenyl)-N-[4-(4-fluoro-2-methyl-phenyl)-2′-hydroxymethyl-[2,4′]bipyridinyl-5-yl]-N-methyl-isobutyramide], the Ki in assay [1] is 11.5 nM; on human NK1 receptor it was 1.55 nM.

In the case of `CC(=O)N(C)C1(c2ccccc2)CCN(CCC[C@]2(c3ccc(Cl)c(Cl)c3)CCCN(C(=O)c3ccccc3)C2)CC1` [SR 142,801, Osanetant], the “activity on positive symptoms of schizophrenia” value in assay [2] (altered behaviour, delusion, hallucinations, extreme emotions, excited motor activity, incoherent speech) is recorded as “active on positive symptoms of schizophrenia”. In assay [2] (depression, anhedonia, social isolation or memory and attention deficits), the “activity on negative symptoms of schizophrenia” value is “inactive in the treatment of negative symptoms”.

On to `CN(C(=O)C(C)(C)c1cc(C(F)(F)F)cc(C(F)(F)F)c1)c1cnc(OC(CO)CO)cc1-c1ccccc1Cl` [Example 2, 2-(3,5-Bis-trifluoromethyl-phenyl)-N-[4-(2-chloro-phenyl)-6-(2-hydroxy-1-hydroxymethyl-ethoxy)-pyridin-3-yl]-N-methyl-isobutyramide], for which the Ki in assay [1] was 9.12 nM; on human NK1 receptor it was 1.23 nM.

Regarding `Cc1cc(F)ccc1-c1cc(C2=CCN(S(C)(=O)=O)CC2)ncc1N(C)C(=O)C(C)(C)c1cc(C(F)(F)F)cc(C(F)(F)F)c1` [Example 10, 2-(3,5-Bis-trifluoromethyl-phenyl)-N-[4-(4-fluoro-2-methyl-phenyl)-1′-methanesulfonyl-1′,2′,3′,6′-tetrahydro-[2,4′]bipyridinyl-5-yl]-N-methyl-isobutyramide], the Ki in assay [1] is 2.63 nM; on human NK1 receptor, 0.617 nM.

For `Cc1cc(F)ccc1-c1cc(OC[C@@H]2CCCN2)ncc1N(C)C(=O)C(C)(C)c1cc(C(F)(F)F)cc(C(F)(F)F)c1` [Example 3, (S)-2-(3,5-Bis-trifluoromethyl-phenyl)-N-[4-(4-fluoro-2-methyl-phenyl)-6-(pyrrolidin-2-ylmethoxy)-pyridin-3-yl]-N-methyl-isobutyramide], the Ki in assay [1] was 23.4 nM; at human NK1 receptor it was 0.851 nM.

For the compound `CC(=O)N1CCCC(c2cc(-c3ccc(F)cc3C)c(N(C)C(=O)C(C)(C)c3cc(C(F)(F)F)cc(C(F)(F)F)c3)cn2)C1` (racemic) [Example 13, (RS)-N-[1′-Acetyl-4-(4-fluoro-2-methyl-phenyl)-1′,2′,3′,4′,5′,6′-hexahydro-[2,3′]bipyridinyl-5-yl]-2-(3,5-bis-trifluoromethyl-phenyl)-N-methyl-isobutyramide], the Ki is 14.5 nM in assay [1] and 1.62 nM on human NK1 receptor.

As to `Cc1cc(F)ccc1-c1cc(C2CCCN(S(C)(=O)=O)C2)ncc1N(C)C(=O)C(C)(C)c1cc(C(F)(F)F)cc(C(F)(F)F)c1` (racemic) [Example 12, (RS)-2-(3,5-Bis-trifluoromethyl-phenyl)-N-[4-(4-fluoro-2-methyl-phenyl)-1′-methanesulfonyl-1′,2′,3′,4′,5′,6′-hexahydro-[2,3′]bipyridinyl-5-yl]-N-methyl-isobutyramide], the Ki in assay [1] was 21.4 nM; on human NK1 receptor it was 0.589 nM.

For the compound `Cc1cc(F)ccc1-c1cc(C2CCN(S(C)(=O)=O)CC2)ncc1N(C)C(=O)C(C)(C)c1cc(C(F)(F)F)cc(C(F)(F)F)c1` [Example 11, 2-(3,5-Bis-trifluoromethyl-phenyl)-N-[4-(4-fluoro-2-methyl-phenyl)-1′-methanesulfonyl-1′,2′,3′,4′,5′,6′-hexahydro-[2,4′]bipyridinyl-5-yl]-N-methyl-isobutyramide], the Ki in assay [1] is 6.46 nM; on human NK1 receptor, 1.1 nM.

On to `Cc1cc(F)ccc1-c1cc(-c2ccc[n+]([O-])c2)ncc1N(C)C(=O)C(C)(C)c1cc(C(F)(F)F)cc(C(F)(F)F)c1` [Example 6, 2-(3,5-Bis-trifluoromethyl-phenyl)-N-[4-(4-fluoro-2-methyl-phenyl)-1′-oxy-[2,3′]bipyridinyl-5-yl]-N-methyl-isobutyramide], for which the Ki in assay [1] is 24.5 nM; at human NK1 receptor, 0.977 nM.

Consider `Cc1cc(F)ccc1-c1cc(SCCO)ncc1N(C)C(=O)C(C)(C)c1cc(C(F)(F)F)cc(C(F)(F)F)c1` [Example 4, 2-(3,5-Bis-trifluoromethyl-phenyl)-N-[4-(4-fluoro-2-methyl-phenyl)-6-(2-hydroxy-ethylsulfanyl)-pyridin-3-yl]-N-methyl-isobutyramide], for which the figures for the Ki (in assay [1]; on human NK1 receptor) were 8.51 nM and 2.34 nM, respectively.

As for `Cc1cc(F)ccc1-c1cc(-c2cncc(CO)c2)ncc1N(C)C(=O)C(C)(C)c1cc(C(F)(F)F)cc(C(F)(F)F)c1` [Example 8, 2-(3,5-Bis-trifluoromethyl-phenyl)-N-[4-(4-fluoro-2-methyl-phenyl)-5′-hydroxymethyl-[2,3′]bipyridinyl-5-yl]-N-methyl-isobutyramide], the Ki in assay [1] is 6.17 nM; at human NK1 receptor it was 1.82 nM.

As to `Cc1cc(F)ccc1-c1cc(C2=CCSCC2)ncc1N(C)C(=O)C(C)(C)c1cc(C(F)(F)F)cc(C(F)(F)F)c1` [Example 14, 2-(3,5-Bis-trifluoromethyl-phenyl)-N-[6-(3,6-dihydro-2H-thiopyran-4-yl)-4-(4-fluoro-2-methyl-phenyl)-pyridin-3-yl]-N-methyl-isobutyramide], the values for the Ki (in assay [1]; at human NK1 receptor) were 14.1 nM and 1.15 nM, respectively.

Regarding `Cc1cc(F)ccc1-c1cc(C2CCS(=O)(=O)CC2)ncc1N(C)C(=O)C(C)(C)c1cc(C(F)(F)F)cc(C(F)(F)F)c1` [Example 16, 2-(3,5-Bis-trifluoromethyl-phenyl)-N-[6-(1,1-dioxo-hexahydro-1λ^6-thiopyran-4-yl)-4-(4-fluoro-2-methyl-phenyl)-pyridin-3-yl]-N-methyl-isobutyramide], the Ki in assay [1] is 16.6 nM; at human NK1 receptor, 1.38 nM.

For `Cc1cc(F)ccc1-c1cc(-c2cccc(CO)c2)ncc1N(C)C(=O)C(C)(C)c1cc(C(F)(F)F)cc(C(F)(F)F)c1` [Example 7, 2-(3,5-Bis-trifluoromethyl-phenyl)-N-[4-(4-fluoro-2-methyl-phenyl)-6-(3-hydroxymethyl-phenyl)-pyridin-3-yl]-N-methyl-isobutyramide], the values for the Ki (in assay [1]; at human NK1 receptor) were 6.92 nM and 1.2 nM, respectively.
